Data taken from patent US20030096237A1, “Determination of the ability of patients to respond to a tumor treatment” (priority 2000, published 2003).

Test system: CNCM I-2545
Assay: oligonucleotide array analysis of IFN-α modulated gene expression
Assay type: cell-based, human
Protocol: All these cell lines were cultured in RPMI medium supplemented with 10% FCS, glutamine (2 mM), sodium pyruvate (1 mM), non-essential amino acids and HEPES buffer (10 mM) (all from GIBCO Life Sciences, Paisley, UK). When confluent, the cells were passaged by trypsinization.
Cultured melanoma cells were harvested by scraping and total cellular RNA was extracted. 10 μg from each sample were used directly as templates for cDNA synthesis using a commercial kit (Roche Molecular Biochemicals, Rotkreuz, Switzerland). The T7 promoter sequence incorporated into the cDNA synthesis primer allowed template amplification and biotin labeling by in vitro transcription using a commercial kit (Affymetrix, Santa Clara, Calif.). After alkaline heat fragmentation […] was hybridised to the array (Affymetrix, Santa Clara, Calif.) and all subsequent steps were performed following standard procedures as supplied with the arrays. Raw data were collected with a confocal laser scanner (Hewlett Packard, Palo Alto, Calif.) using GeneChip software v3.1 (Affymetrix, Santa Clara, Calif.).
Raw data were normalized based on the total chip signal obtained upon hybridisation of ME15 cell line cDNA. This array was selected because: i) the 5′/3′ intensity ratio of control genes was smaller than 3; ii)>25% of the genes are called “present” by Genechip; iii) the image appearance is homogeneous with low background and no sign of mechanical chip damage.
The normalized average difference (nAD) between the signals of the perfect and of the mismatch probesets for each gene was used as the expression level of a given gene. At least one nAD value in a pairwise comparison of data has to exceed 50 to be included. Based on nAD, change factors related to IFN-α exposure were also calculated. Negative nAD values were set to 20 in order to avoid the calculation of artificially high modifications. In order to exclude artefacts, only genes with robust change factors, greater than 2-fold, were included in the analysis. […] Genes were clustered according to their mode of regulation.
Total cellular RNA was extracted from the sensitive and resistant melanoma cell lines identified above, reverse transcribed and processed for hybridization to an oligonucleotide array (Hu6800FL, PN 900183) containing probe sets derived from 7000 full-length human genes. Expression levels for each gene were calculated as normalized average difference (nAD, see materials and methods).
Patterns of genes expressed in IFN-α sensitive and resistant melanoma cell lines were investigated upon 48 hour culture in the presence of IFN-α. CNCM I-2546 and CNCM I-2545 were studied in detail.
In Table 2 below, CNCM I-2546 and CNCM I-2545 cultured for 48 hours in the absence or in the presence of 100 U/ml IFN-α were used to assay cytokine modulated gene expression as matched with data obtained in fibrosarcoma cells. This analysis yielded six clusters of genes. […] Data are presented as average difference of signal intensity between match and mismatch probesets.
In Table 3 below, CNCM I-2546 and CNCM I-2545 cell lines cultured for 48 hours in the absence or in the presence of 100 U/ml IFN-α were used to identify novel cytokine induced genes whose expression was not found to be modulated in fibrosarcoma cells. Cluster 1 includes genes inducible in the CNCM I-2546 sensitive but not in the CNCM I-2545 resistant cell line. Cluster 2 comprises genes inducible in both lines. Data are presented as average difference of signal intensity between match and mismatch probesets.

[1] = CNCM I-2545, IFN-α 100 U/ml 48 hours

With IFN-α the “change factor (CF) D28137 bst-2” value [1] was 1.38, the “change factor (CF) D32050 alanyl-trna synthetase” value [1] was −0.92 and the “change factor (CF) D49824 hla-b null allele” value [1] was −0.97. For the same substance, the “change factor (CF) D50914 EST” value [1] was −2, the “change factor (CF) D78132 rheb gene, ras-related gtp binding protein gene” value [1] was 1.88 and the “change factor (CF) HG658 major histocompatibility complex, class 1 c” value [1] was −1.6. The “change factor (CF) HG1612 macmarcks” value [1] was −0.16, the “change factor (CF) HG2917 major histocompatibility complex, class i, e” value [1] was −0.1 and the “change factor (CF) J00105 beta-2 microglobulin gene” value [1] was 0.26. For the same substance, the “change factor (CF) J00212 leukocyte interferon (ifn-alpha)” value [1] was −4.3, the “change factor (CF) J03909 gamma-interferon-inducible protein (ip-30)” value [1] was 2.38 and the “change factor (CF) J04164 interferon-inducible protein 27-sep” value [1] was 0. For the same substance, the “change factor (CF) J04182 lysosomal membrane glycoprotein-1 (lamp1)” value [1] was 6.33, the “change factor (CF) J04444 cytochrome c-1 gene” value [1] was 1.56 and the “change factor (CF) K01900 lymphocyte interferon alpha type 201” value [1] was −6.8. For the same substance, the “change factor (CF) K03515 neuroleukin” value [1] was −0.17, the “change factor (CF) L07633 interferon-gamma” value [1] was 11.5 and the “change factor (CF) L13210 mac-2 binding protein” value [1] was −0.22. The “change factor (CF) L35249 vacuolar h + -atpase mr 56,000 subunit (ho57)” value [1] was 16.85, the “change factor (CF) L37043 casein kinase i epsilon” value [1] was 0.01 and the “change factor (CF) L40387 thyroid receptor interactor (trip14)” value [1] was −4.2. The “change factor (CF) L42243 ifnar2 gene (interferon receptor)” value [1] was −2.1, the “change factor (CF) M13755 interferon-induced 17-kda/15-kda protein” value [1] was 0.55 and the “change factor (CF) M19650 2′,3′-cyclic nucleotide 3prime-phosphodiesterase” value [1] was −0.38. For the same substance, the “change factor (CF) M30818 interferon-induced cellular resistance mediator protein” value [1] was 0, the “change factor (CF) M31013 nonmuscle myosin heavy chain (nmhc)” value [1] was −0.43 and the “change factor (CF) M34338 spermidine synthase” value [1] was −0.7. For the same substance, the “change factor (CF) M60784 ul snrnp-specific protein” value [1] was 2.59, the “change factor (CF) M65028 heterogeneous nuclear ribonucleoprotein a/b” value [1] was 1.29 and the “change factor (CF) M79462 pml-1” value [1] was −9.05. For the same substance, the “change factor (CF) M92642 alpha-1 type xvi collagen (col16a1)” value [1] was 4.75, the “change factor (CF) M94880 mhc class i (hla-a*8001)” value [1] was −0.31 and the “change factor (CF) M97935 transcription factor isgf-3” value [1] was −2.6. The “change factor (CF) M98343 amplaxin (ems1)” value [1] was 2.15, the “change factor (CF) S81914 iex-1 = radiation-inducible immediate-early gene” value [1] was 0.05 and the “change factor (CF) U01824 glutamate/aspartate transporter” value [1] was −8.69. For the same substance, the “change factor (CF) U09579 melanoma differentiation associated (mda-6)” value [1] was 0, the “change factor (CF) U18009 chromosome 17q21 clone lf113” value [1] was −0.59 and the “change factor (CF) U18018 ela enhancer binding protein (ela-f)” value [1] was 0.15. For the same substance, the “change factor (CF) U22970 16-jun gene, interferon-inducible peptide (6-16)” value [1] was 0.2, the “change factor (CF) U41515 dss1” value [1] was 5.15 and the “change factor (CF) U47025 fetal brain glycogen phosphorylase b” value [1] was −0.45. The “change factor (CF) U50327 protein kinase c substrate 80k-h gene (prkcsh)” value [1] was −0.7, the “change factor (CF) U50648 interferon-inducible rna-dependent protein kinase (pkr)” value [1] was −1.3 and the “change factor (CF) U51127 interferon regulatory factor 5” value [1] was −1.88. For the same substance, the “change factor (CF) U52513 rig-g” value [1] was −13.45, the “change factor (CF) U53830 interferon regulatory factor 7a” value [1] was −4.15 and the “change factor (CF) U61263 acetolactate synthase homolog” value [1] was −0.36. The “change factor (CF) U65579 mitochondrial nadh dehydrogenase-ubiquinone” value [1] was −0.01, the “change factor (CF) U65932 extracellular matrix protein 1 (ecm1)” value [1] was −1.34 and the “change factor (CF) U69126 fuse binding protein 2 (fbp2)” value [1] was 0.39. For the same substance, the “change factor (CF) U70063 human acid ceramidase” value [1] was 2.48, the “change factor (CF) U72206 guanine nucleotide regulatory factor (lfp40)” value [1] was −0.47 and the “change factor (CF) U72882 interferon-induced leucine zipper protein (ifp35)” value [1] was −3.63. The “change factor (CF) U78525 human eukaryotic translation initiation factor (eif3)” value [1] was 1.25, the “change factor (CF) U91316 acyl-coa thioester hydrolase” value [1] was 0.69 and the “change factor (CF) X04412 plasma gelsolin” value [1] was 0. The “change factor (CF) X07730 prostate specific antigen” value [1] was −1.75, the “change factor (CF) X15949 interferon regulatory factor-2 (irf-2)” value [1] was 0 and the “change factor (CF) X57351 1-8d gene from interferon-inducible gene family” value [1] was 0.09. The “change factor (CF) X57522 ring4 cdna” value [1] was −1.92, the “change factor (CF) X67325 p27” value [1] was 0 and the “change factor (CF) X70848 protein phosphatase 1, catalytic subunit” value [1] was 8.42. The “change factor (CF) X76538 mpv17” value [1] was −0.31, the “change factor (CF) X90846 mixed lineage kinase 2” value [1] was −4.95 and the “change factor (CF) X95325 dna binding protein a variant” value [1] was −1.51. The “change factor (CF) X96401 rox protein” value [1] was −1.76, the “change factor (CF) Y00264 amyloid a4 precursor” value [1] was 0.09 and the “change factor (CF) Z26491 gene catechol o-methyltransferase” value [1] was −0.31. The “change factor (CF) Z47055 farnesyl pyrophosphate synthetase like” value [1] was 1.02, the “change factor (CF) Z56281 interferon regulatory factor 3” value [1] was −2 and the “nAD D28137 bst-2” value (Table 3, CNCM I-2545 (+) IFN-α 100 U/ml 48 hours, (−) 37) was 88. For the same substance, the “change factor (CF) D28137 bst-2” value (Table 3, CNCM I-2545, IFN-α 100 U/ml 48 hours) was 1.38.
